The values that follow come from US20190054117A1, “DIMERIZATION SWITCHES AND USES THEREOF” (priority 2014, published 2019).

Sequence of biotinylated FKBP in the presence of everolimus (RAD001) (P62942 2-108 limits assumed): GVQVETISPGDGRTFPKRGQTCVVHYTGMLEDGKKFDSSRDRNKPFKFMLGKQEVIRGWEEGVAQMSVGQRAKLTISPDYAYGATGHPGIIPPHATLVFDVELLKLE

This assay concerns the target biotinylated FKBP in the presence of everolimus (RAD001). Kind of assay: EC50 direct binding assay (AlphaLISA): FLAG FRB protein and biotinylated FKBP with serially diluted everolimus. The settings on record: 30 nM FLAG-tagged FRB, 30 nM biotinylated FKBP; everolimus serial diluted 1:3 from 600 nM. As for the experimental part: In a direct binding assay, unlabeled candidate mutant FRB is incubated in solution with tagged wild-type FKBP in the presence of the dimerization molecule, e.g., under conditions suitable for binding of FRB to the dimerization molecule and dimerization of FRB and FKBP. Tagged FKBP can be removed from the reaction by affinity purification; candidate mutant FRB that is able to bind the dimerization molecule and dimerize with the tagged FKBP will also be removed. […] EC50 values for direct binding affinity can then be calculated using methods known in the art.
FRB mutations were also ranked in an alternative assay format. Briefly, FRB proteins incorporating single and double mutations (SEQ ID NO: 54-58) were produced as FLAG tagged constructs in E. coli as described previously. 30 nM (final) of biotinylated FKBP (SEQ ID NO: 59) and each FLAG FRB protein were combined in the presence of everolimus serial diluted 1:3 from a starting final concentration of 600 nM into a 96 well ½ surface flat-bottom plate (PerkinElmer) and incubated for one hour at room temperature. All dilutions were made in 1× AlphaLISA Immunoassay buffer (PerkinElmer). Anti-Flag acceptor beads (PerkinElmer) were added at 10 ug/ml final concentration and incubated for one hour at room temperature. Streptavidin donor beads (PerkinElmer), were then added at a final concentration of 40 ug/ml and the plate was protected from light and incubated for 30 minutes at room temperature. The plate was then read on the PerkinElmer EnVision Multiplate reader equipped with the Alpha Module using excitation of 680 nm and a 570 nm Emission filter.
(Bead proximity is the source of the signal in Alpha formats.)
The term EC50 denotes the concentration at which the effect is half-maximal. Turning to “T2098L: mutant FRB derived switch domain with T2098L; His-tagged (competition) or His-FLAG-tagged (direct assay)”, the EC50 came to 1.44 nM.

“E2032L: mutant FRB derived switch domain with E2032L; His-tagged (competition) or His-FLAG-tagged (direct assay)”: the EC50 was determined as 2.15 nM.

“Wild type FRB (1): wild type FRB domain of FRAP/mTOR (residues 2021-2113); His-tagged in competition assay, His-FLAG-tagged in direct assay [reference compound]”: the EC50 worked out at 3.9 nM.

With “E2032I: mutant FRB derived switch domain with E2032I; His-tagged (competition) or His-FLAG-tagged (direct assay)”, the EC50 amounted to 2.46 nM.
